Values after ≈ are worked out from the molar mass of the structure shown.
system: E. coli; assay: MIC assay, E. coli; assay type: cell-based

| Molecule | MIC (μg/mL) E. coli [µg/mL] |
| --- | --- |
| 25-O-deacetyl-5′-[(8aR)octahydropyrrolo[1,2-a]pyrazin-2-yl]benzthiazinorifamycin [Compound 78] | 4 |
| COC1C=COC2(C)Oc3c(C)c(O)c4c(=O)c(c5oc6cc(N7CC8C(C7)C8NC(=O)OCC[Si](C)(C)C)cc(O)c6nc-5c4c3C2=O)NC(=O)C(C)=CC=CC(C)C(O)C(C)C(O)C(C)C(OC(C)=O)C1C [Compound 2, 3′-hydroxy-5′-[6-(2-trimethylsilyl)ethylcarbamyl-(1R,5S)-3-azabicyclo[3.1.0]hex-3-yl]benzoxazinorifamycin] | >8 |
| COC1C=COC2(C)Oc3c(C)c(O)c4c(=O)c(c5oc6cc(N7CC8C(N)C8C7)cc(O)c6nc-5c4c3C2=O)NC(=O)C(C)=CC=CC(C)C(O)C(C)C(O)C(C)C(OC(C)=O)C1C [Compound 4, 3′-hydroxy-5′-[6-amino-(1R,5S)-3-azabicyclo[3.1.0]hex-3-yl]benzoxazinorifamycin] | >8 |
| CO[C@H]1/C=C/O[C@@]2(C)Oc3c(C)c(O)c4c(=O)c(c5oc6cc(N7C[C@@H]8CCCN[C@@H]8C7)cc(O)c6nc-5c4c3C2=O)NC(=O)/C(C)=C\C=C\[C@H](C)[C@H](O)[C@@H](C)[C@@H](O)[C@@H](C)[C@H](OC(C)=O)[C@@H]1C [Compound 5, 3′-hydroxy-5′-[(4aS,7aS)-octahydro-6H-pyrrolo[3,4-b]pyridin-6-yl]benzoxazinorifamycin] | 8 (≈ 8.65 µM) |
| CO[C@H]1/C=C/O[C@@]2(C)Oc3c(C)c(O)c4c(=O)c(c5oc6cc(N7C[C@@H]8CCCN[C@@H]8C7)cc(O)c6nc-5c4c3C2=O)NC(=O)/C(C)=C\C=C\[C@H](C)[C@H](O)[C@@H](C)[C@@H](O)[C@@H](C)[C@H](O)[C@@H]1C [Compound 7, 25-O-deacetyl-3′-hydroxy-5′-[(4aS,7aS)-octahydro-6H-pyrrolo[3,4-b]pyridin-6-yl]benzoxazinorifamycin] | >8 |
| CO[C@H]1/C=C/O[C@@]2(C)Oc3c(C)c(O)c4c(=O)c(c5oc6cc(N7CCC(N8CCOCC8)CC7)cc(O)c6nc-5c4c3C2=O)NC(=O)/C(C)=C\C=C\[C@H](C)[C@H](O)[C@@H](C)[C@@H](O)[C@@H](C)[C@H](OC(C)=O)[C@@H]1C [Compound 9, 3′-hydroxy-5′-(4-morpholinyl-1-piperidinyl)benzoxazinorifamycin] | 8 (≈ 8.26 µM) |
| CO[C@H]1/C=C/O[C@@]2(C)Oc3c(C)c(O)c4c(=O)c(c5oc6cc(N7CC8CCC(C7)N8)cc(O)c6nc-5c4c3C2=O)NC(=O)/C(C)=C\C=C\[C@H](C)[C@H](O)[C@@H](C)[C@@H](O)[C@@H](C)[C@H](OC(C)=O)[C@@H]1C [Compound 10, 3′-hydroxy-5′-(3,8-diazabicyclo[3.2.1]octan-3-yl)benzoxazinorifamycin] | >8 |
| CO[C@H]1/C=C/O[C@@]2(C)Oc3c(C)c(O)c4c(=O)c(c5oc6cc(N7CCC(N8CCOCC8)CC7)cc(O)c6nc-5c4c3C2=O)NC(=O)/C(C)=C\C=C\[C@H](C)[C@H](O)[C@@H](C)[C@@H](O)[C@@H](C)[C@H](O)[C@@H]1C [Compound 11, 25-O-deacetyl-3′-hydroxy-5′-(4-morpholinyl-1-piperidinyl)benzoxazinorifamycin] | 4 (≈ 4.31 µM) |
| CO[C@H]1/C=C/O[C@@]2(C)Oc3c(C)c(O)c4c(=O)c(c5oc6cc(N7C[C@H]8CCCN[C@H]8C7)cc(O)c6nc-5c4c3C2=O)NC(=O)/C(C)=C\C=C\[C@H](C)[C@H](O)[C@@H](C)[C@@H](O)[C@@H](C)[C@H](OC(C)=O)[C@@H]1C [Compound 12, 3′-hydroxy-5′-[(4aR,7aR)-octahydro-6H-pyrrolo[3,4-b]pyridin-6-yl]benzoxazinorifamycin] | 8 (≈ 8.65 µM) |
| CO[C@H]1/C=C/O[C@@]2(C)Oc3c(C)c(O)c4c(=O)c(c5oc6cc(N7CCC(NC(=O)OCC(C)C)CC7)cc(O)c6nc-5c4c3C2=O)NC(=O)/C(C)=C\C=C\[C@H](C)[C@H](O)[C@@H](C)[C@@H](O)[C@@H](C)[C@H](OC(C)=O)[C@@H]1C [Compound 13] | 4 (≈ 4 µM) |
| CO[C@H]1/C=C/O[C@@]2(C)Oc3c(C)c(O)c4c(=O)c(c5oc6cc(N7C[C@H]8CCCN[C@H]8C7)cc(O)c6nc-5c4c3C2=O)NC(=O)/C(C)=C\C=C\[C@H](C)[C@H](O)[C@@H](C)[C@@H](O)[C@@H](C)[C@H](O)[C@@H]1C [Compound 15, 25-O-deacetyl-3′-hydroxy-5′-[(4aR,7aR)-octahydro-6H-pyrrolo[3,4-b]pyridin-6-yl]benzoxazinorifamycin] | >8 |
| CO[C@H]1/C=C/O[C@@]2(C)Oc3c(C)c(O)c4c(=O)c(c5oc6cc(N7CC8CCC(C7)N8)cc(O)c6nc-5c4c3C2=O)NC(=O)/C(C)=C\C=C\[C@H](C)[C@H](O)[C@@H](C)[C@@H](O)[C@@H](C)[C@H](O)[C@@H]1C [Compound 16, 25-O-deacetyl-3′-hydroxy-5′-(3,8-diazabicyclo[3.2.1]octan-3-yl)benzoxazinorifamycin] | 4 (≈ 4.6 µM) |
| CO[C@H]1/C=C/O[C@@]2(C)Oc3c(C)c(O)c4c(=O)c(c5oc6cc(N7CCC(N(C)C)CC7)cc(O)c6nc-5c4c3C2=O)NC(=O)/C(C)=C\C=C\[C@H](C)[C@H](O)[C@@H](C)[C@@H](O)[C@@H](C)[C@H](OC(C)=O)[C@@H]1C [Compound 17, 3′-hydroxy-5′-(4-N,N-dimethylamino-1-piperidinyl)benzoxazinorifamycin] | 8 (≈ 8.63 µM) |
| CO[C@H]1/C=C/O[C@@]2(C)Oc3c(C)c(O)c4c(=O)c(c5oc6cc(N7CCC(N(C)C)CC7)cc(O)c6nc-5c4c3C2=O)NC(=O)/C(C)=C\C=C\[C@H](C)[C@H](O)[C@@H](C)[C@@H](O)[C@@H](C)[C@H](O)[C@@H]1C [Compound 18, 25-O-deacetyl-3′-hydroxy-5′-(4-N,N dimethylamino-1-piperidinyl)benzoxazinorifamycin] | 4 (≈ 4.52 µM) |
| COC1C=COC2(C)Oc3c(C)c(O)c4c(=O)c(c5oc6cc(N7CC8C(N)C8C7)cc(O)c6nc-5c4c3C2=O)NC(=O)C(C)=CC=CC(C)C(O)C(C)C(O)C(C)C(O)C1C [Compound 20, 25-O-deacetyl-3′-hydroxy-5′-[6-amino-(1R,5S)-3-azabicyclo[3.1.0]hex-3-yl]benzoxazinorifamycin] | >8 |
| CCOC(=O)NC1C2CN(c3cc(O)c4nc5c6c7c8c(C)c(O)c6c(=O)c(c-5oc4c3)NC(=O)C(C)=CC=CC(C)C(O)C(C)C(O)C(C)C(OC(C)=O)C(C)C(OC)C=COC(C)(O8)C7=O)CC21 (centres unmarked) [Compound 21] | 4 (≈ 4.13 µM) |
| CO[C@H]1/C=C/O[C@@]2(C)Oc3c(C)c(O)c4c(=O)c(c5oc6cc(N7CCC(NC(=O)OC(C)C)CC7)cc(O)c6nc-5c4c3C2=O)NC(=O)/C(C)=C\C=C\[C@H](C)[C@H](O)[C@@H](C)[C@@H](O)[C@@H](C)[C@H](OC(C)=O)[C@@H]1C [Compound 22] | >8 |
| CO[C@H]1/C=C/O[C@@]2(C)Oc3c(C)c(O)c4c(=O)c(c5oc6cc(N7CCC(NS(=O)(=O)C(F)(F)F)CC7)cc(O)c6nc-5c4c3C2=O)NC(=O)/C(C)=C\C=C\[C@H](C)[C@H](O)[C@@H](C)[C@@H](O)[C@@H](C)[C@H](OC(C)=O)[C@@H]1C [Compound 23] | >8 |
| CCCC(=O)NC1CCN(c2cc(O)c3nc4c5c6c7c(C)c(O)c5c(=O)c(c-4oc3c2)NC(=O)/C(C)=C\C=C\[C@H](C)[C@H](O)[C@@H](C)[C@@H](O)[C@@H](C)[C@H](OC(C)=O)[C@H](C)[C@@H](OC)/C=C/O[C@@](C)(O7)C6=O)CC1 [Compound 24, 3′-hydroxy-5′-[4-butanamide-1-piperidinyl]benzoxazinorifamycin] | >8 |
| CO[C@H]1/C=C/O[C@@]2(C)Oc3c(C)c(O)c4c(=O)c(c5oc6cc(N7CCC(NS(C)(=O)=O)CC7)cc(O)c6nc-5c4c3C2=O)NC(=O)/C(C)=C\C=C\[C@H](C)[C@H](O)[C@@H](C)[C@@H](O)[C@@H](C)[C@H](OC(C)=O)[C@@H]1C [Compound 25] | >8 |
| CCCNC(=O)NC1CCN(c2cc(O)c3nc4c5c6c7c(C)c(O)c5c(=O)c(c-4oc3c2)NC(=O)/C(C)=C\C=C\[C@H](C)[C@H](O)[C@@H](C)[C@@H](O)[C@@H](C)[C@H](OC(C)=O)[C@H](C)[C@@H](OC)/C=C/O[C@@](C)(O7)C6=O)CC1 [Compound 28, 3′-hydroxy-5′-[4-propyluryl-1-piperidinyl]benzoxazinorifamycin] | >8 |
| COC(=O)NC1CCN(c2cc(O)c3nc4c5c6c7c(C)c(O)c5c(=O)c(c-4oc3c2)NC(=O)/C(C)=C\C=C\[C@H](C)[C@H](O)[C@@H](C)[C@@H](O)[C@@H](C)[C@H](O)[C@H](C)[C@@H](OC)/C=C/O[C@@](C)(O7)C6=O)CC1 [Compound 30, 25-O-deacetyl-3′-hydroxy-5′-[4-methylcarbamyl-1-piperidinyl]benzoxazinorifamycin] | >8 |
| CCOC(=O)NC1CCN(c2ccc3nc4c5c6c7c(C)c(O)c5c(=O)c(c-4n(C)c3c2)NC(=O)/C(C)=C\C=C\[C@H](C)[C@H](O)[C@@H](C)[C@@H](O)[C@@H](C)[C@H](O)[C@H](C)[C@@H](OC)/C=C/O[C@@](C)(O7)C6=O)CC1 [Compound 31] | 8 (≈ 8.64 µM) |
| CO[C@H]1/C=C/O[C@@]2(C)Oc3c(C)c(O)c4c(=O)c(c5oc6cc(N7CCC(N)CC7)cc(O)c6nc-5c4c3C2=O)NC(=O)/C(C)=C\C=C\[C@H](C)[C@H](O)[C@@H](C)[C@@H](O)[C@@H](C)[C@H](OC(C)=O)[C@@H]1C [Compound 33, 3′-hydroxy-5′-[4-amino-1-piperidinyl]benzoxazinorifamycin] | >8 |
| CCNC(=O)NC1CCN(c2cc(O)c3nc4c5c6c7c(C)c(O)c5c(=O)c(c-4oc3c2)NC(=O)/C(C)=C\C=C\[C@H](C)[C@H](O)[C@@H](C)[C@@H](O)[C@@H](C)[C@H](OC(C)=O)[C@H](C)[C@@H](OC)/C=C/O[C@@](C)(O7)C6=O)CC1 [Compound 34, 3′-hydroxy-5′-[4-ethyluryl-1-piperidinyl]benzoxazinorifamycin] | 8 (≈ 8.25 µM) |
| CCCC(=O)NC1CCN(c2cc(O)c3nc4c5c6c7c(C)c(O)c5c(=O)c(c-4oc3c2)NC(=O)C(C)=CC=CC(C)C(O)C(C)C(O)C(C)C(O)C(C)C(OC)C=COC(C)(O7)C6=O)CC1 (centres unmarked) [Compound 36, 25-O-deacetyl-3′-hydroxy-5′-[4-butanamide-1-piperidinyl]benzoxazinorifamycin] | >8 |
